Assay results: US10772840B2 (Charleston Laboratories, Inc., priority 2016, dated 2020)

Experiments:
[1] = Dissolution measurement by USP Apparatus 2 (Paddle Apparatus), HPLC analysis; assay type: physicochemical; conditions: in a capsule, 500 ml 0.1 N HCl pH 1.1, N=6
Description: Dissolution studies were conducted to measure the rates of dissolution of active ingredients using a USP Apparatus 2 (Paddle Apparatus) with a dissolution fluid of 500 ml deaerated 0.1 N HCl (i.e., pH 1.1) at 37.0+/−0.5° C. Dissolution samples were analyzed by HPLC.
Dissolution medium of 0.1N HCl was prepared by mixing approximately 85 ml of concentrated (12N) Hydrochloric Acid with 10 L of water. Stock promethazine HCl standard solution was prepared by adding approximately 30 ml of dissolution medium to 25.0 mg of dried Promethazine Hydrochloride USP reference standard in a 50 ml volumetric flash, diluted to volume with dissolution media, and mixed well. […] The resulting solution is diluted to volume with dissolution medium and mixed well.
The dissolution apparatus used is USP Apparatus 2 (Paddle Apparatus) with a speed of 50 rpm at 37.0° C.±0.5° C. Dissolution medium (500 ml) was Helium sparged for at least 10 minutes. N=6 samples were tested. Sample time point of 5, 10, 15, 20, 30, 45, 60, and 90 minutes (final time point at 250 rpm). Filters: QLA 10 μm in-line full flow porous filter or equivalent; chromafil 1.0 μm on-line glass fiber membrane filter or equivalent.
The dissolution apparatus was assembled and the paddle was positioned so that the distance between its lower edge and the lower inner surface of the vessel is within 25 mm±2 mm throughout the test. This step was repeated for each of the six vessels. The speed (50 rpm) and the temperature (37.0° C.±0.5° C.) were set. 500 mL of 0.1N HCl solution were placed into each of the six vessels, previously degassed via helium purge, degassed using degasser or other suitable means. The Dissolution medium was equilibrated to set temperature and the temperature of the dissolution medium was checked with a thermometer or thermocouple before starting the dissolution. Each of the six (6) capsules were accurately weighed and the weight was recorded. The dissolution test was started. Each capsule was dropped with sinker into vessels noting the station assigned to each recorded capsule weight. The shaft was rotated at 50 rpm. Samples were withdrawn by dissolution auttosampler at 5, 10, 15, 20, 30, 45, 60, and 90 minutes into HPLC vials, or were withdraw manually. Filters (QLA 10 μm in-line full flow porous filter or equivalent; chromafil 1.0 μm on-line glass fiber membrane filter or equivalent) were utilized, discarding at least the first 5 mL of the filtrate, and clear filtrate was transfered into HPLC vials. After withdrawing samples at the 60 minute time point, the paddle rotation speed was increased to 250 rpm until the next time point of 90 minutes.
HPLC conditions: Flow rate: 1.0 ml/min; Injection Volume: 10 μL; Column Temperature: 40° C.±2° C.; Wavelengths: 240 nm; Run Time: 7 minutes; Mobile Phase A was 0.2% TFA in Water, which was prepared by mixing well 2.0 ml of trifluoroacetic acid with 1 L of water. Mobile Phase B: 0.2% TFA in Acetonitrile, which was prepared by mixing well 2.0 ml of trifluoroacetic acid to 1 L of acetonitrile; and Gradient used was as follows in Table 8.
If a Water® dissolution autosampler was utilized, then the Empower Dissolution Software was used to calculate the profile. Calculation are performed using a validated excel spreadsheet. When the sample was performed manually, the volume correction was considered for the calculation.

[2] = Impurity profile (related substances) by HPLC, initial and after one month at 40° C. (stability study); assay type: physicochemical; conditions: HPLC percent area
Description: The percentages of related substances were measured using an HPLC.
Stock promethazine HCl selectivity solution was prepared by accurately weighing about 2 mg of EP promethazine for peak identification CRS and transferring into 1 mL of diluent (prepared by mixing 750 mL of mobile phase A and 250 mL of acetonitrile), followed by vortexing to dissolve.
Ten capsules were randomly selected and weighed. The contents of the ten capsules were emptied into a 500 mL volumetric flask. 300 mL of diluent was added and the mixture was sonicated in an ice bath for 40 minutes or until completely disintegrated with intermittent swirling. The temperature was equilibrated to room temperature and more diluent was added to volume.
Promethazine HCl impurity sample solution: stock solution sample was filtered through a 0.45 μm PVDF membrane, syringe filter or a 0.45 μm PTFE w/GMF membrane, syringe filter discarding the first 5 mL and collecting approximately 20 mL into an appropriate glass container. Fill an HPLC vial with the filtrate
The RT of the promethazine in the promethazine HCl selectivity solution is between 44.1 and 53.9.
Mobile Phase B: 0.2% TFA in Acetonitrile, which was prepared by mixing well 2.0 ml of trifluoroacetic acid to 1 L of acetonitrile; and Gradient used was as follows in Table 15.
All known and unknown impurities were calculated via percent area as follow:
[formula] Where: • Ru=Peak area of related substance in the sample solution • Rt=Sum of peak area of promethazine or sumatriptan and all related substances areas corresponding to respective peak in sample solution • RRF=Relative Response Factor for related substances
The formulation was examined for its stability after one month at 40° C.

[3] = after 1 month store at 40° C., 5 min, 50 rpm
[4] = after 1 month store at 40° C., 10 min, 50 rpm
[5] = after 1 month store at 40° C., 15 min, 50 rpm
[6] = after 1 month store at 40° C., 20 min, 50 rpm
[7] = after 1 month store at 40° C., 30 min, 50 rpm
[8] = after 1 month store at 40° C., 45 min, 50 rpm
[9] = after 1 month store at 40° C., 60 min, 50 rpm
[10] = after 1 month store at 40° C., 90 min (250 rpm after 60 min)
[11] = large batch, 90 min (250 rpm after 60 min)

CNS(=O)(=O)Cc1ccc2[nH]cc(CCN(C)C)c2c1 [Sumatriptan, Sumatriptan succinate]
Dissolution (% release), Max. [1, 3]: 77 | Dissolution (% release), Mean [1, 3]: 60 | Dissolution (% release), Min. [1, 3]: 47 | Dissolution (% release), Max. [1, 4]: 89 | Dissolution (% release), Mean [1, 4]: 76 | Dissolution (% release), Min. [1, 4]: 62 | Dissolution (% release), Max. [1, 5]: 91 | Dissolution (% release), Mean [1, 5]: 81 | Dissolution (% release), Min. [1, 5]: 69 | Dissolution (% release), Max. [1, 6]: 94 | Dissolution (% release), Mean [1, 6]: 85 | Dissolution (% release), Min. [1, 6]: 74 | Dissolution (% release), Max. [1, 7]: 95 | Dissolution (% release), Mean [1, 7]: 88 | Dissolution (% release), Min. [1, 7]: 80 | Dissolution (% release), Max. [1, 8]: 97 | Dissolution (% release), Mean [1, 8]: 91 | Dissolution (% release), Min. [1, 8]: 84 | Dissolution (% release), Max. [1, 9]: 98 | Dissolution (% release), Mean [1, 9]: 93 | Dissolution (% release), Min. [1, 9]: 86 | Dissolution (% release), Max. [1, 10]: 100 | Dissolution (% release), Mean [1, 10]: 98 | Dissolution (% release), Min. [1, 10]: 96 | Dissolution (% release), Max. ([1]; large batch, 5 min, 50 rpm): 73 | Dissolution (% release), Mean ([1]; large batch, 5 min, 50 rpm): 66 | Dissolution (% release), Min. ([1]; large batch, 5 min, 50 rpm): 56 | Dissolution (% release), Max. ([1]; large batch, 10 min, 50 rpm): 86 | Dissolution (% release), Mean ([1]; large batch, 10 min, 50 rpm): 80 | Dissolution (% release), Min. ([1]; large batch, 10 min, 50 rpm): 73 | Dissolution (% release), Max. ([1]; large batch, 15 min, 50 rpm): 89 | Dissolution (% release), Mean ([1]; large batch, 15 min, 50 rpm): 85 | Dissolution (% release), Min. ([1]; large batch, 15 min, 50 rpm): 81 | Dissolution (% release), Max. ([1]; large batch, 20 min, 50 rpm): 91 | Dissolution (% release), Mean ([1]; large batch, 20 min, 50 rpm): 88 | Dissolution (% release), Min. ([1]; large batch, 20 min, 50 rpm): 84 | Dissolution (% release), Max. ([1]; large batch, 30 min, 50 rpm): 93 | Dissolution (% release), Mean ([1]; large batch, 30 min, 50 rpm): 90 | Dissolution (% release), Min. ([1]; large batch, 30 min, 50 rpm): 87 | Dissolution (% release), Max. ([1]; large batch, 45 min, 50 rpm): 95 | Dissolution (% release), Mean ([1]; large batch, 45 min, 50 rpm): 93 | Dissolution (% release), Min. ([1]; large batch, 45 min, 50 rpm): 91 | Dissolution (% release), Max. ([1]; large batch, 60 min, 50 rpm): 96 | Dissolution (% release), Mean ([1]; large batch, 60 min, 50 rpm): 94 | Dissolution (% release), Min. ([1]; large batch, 60 min, 50 rpm): 92 | Dissolution (% release), Max. [1, 11]: 98 | Dissolution (% release), Mean [1, 11]: 98 | Dissolution (% release), Min. [1, 11]: 97 | Impurity percentages, all related substances combined ([2]; in a capsule stored at 40° C. for 1 month): None Detected | Impurity percentages, all related substances combined ([2]; in a capsule, initial (before storage)): 0.1%
